Experimental data reported in ChEMBL document CHEMBL2384968, “Characterization of maleimide-based glycogen synthase kinase-3 (GSK-3) inhibitors as stimulators of steroidogenesis” (J Med Chem, 2013).
In brackets after ≈: the same amount, converted by molar mass.

Tests used:
[1] = Cytotoxicity against mouse MA-10 cells at 100 uM after 2 hrs by MTT assay; format: cell-based; settings: ma-10, 2 h
[2] = Cytotoxicity against mouse MA-10 cells at 0.1 to 100 uM after 2 hrs by MTT assay; format: cell-based; settings: ma-10, 2 h
[3] = biological target: Glycogen synthase kinase-3 beta (Homo sapiens, UniProt P49841); test: Inhibition of human GSK3beta-mediated YRRAAVPPSPSLSRHSSPHQ(pS)EDEEE phosphorylation
[4] = Kinetic aqueous solubility of the compound by HPLC analysis; format: physicochemical; settings: read-out: Kinetic_solubility

Glycogen synthase kinase-3 beta, sequence (P49841 whole entry): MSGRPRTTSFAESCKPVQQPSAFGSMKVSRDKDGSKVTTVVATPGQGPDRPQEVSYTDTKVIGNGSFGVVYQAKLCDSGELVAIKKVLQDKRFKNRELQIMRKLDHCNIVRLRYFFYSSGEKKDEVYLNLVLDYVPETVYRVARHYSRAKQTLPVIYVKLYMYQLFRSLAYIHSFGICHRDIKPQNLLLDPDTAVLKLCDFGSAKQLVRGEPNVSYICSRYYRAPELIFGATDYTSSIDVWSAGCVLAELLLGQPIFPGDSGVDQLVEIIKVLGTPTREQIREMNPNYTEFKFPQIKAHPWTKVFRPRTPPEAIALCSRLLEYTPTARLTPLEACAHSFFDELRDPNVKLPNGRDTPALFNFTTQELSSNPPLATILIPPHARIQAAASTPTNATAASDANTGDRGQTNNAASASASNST

Row | SMILES | Activity [1] | Activity [2] | IC50 [3] | solubility kinetic [4]
1 | O=C1NC(=O)C(c2cn3c4c(cc(F)cc24)CNCC3)=C1c1coc2ccccc12 | Toxic | Toxic | 3.7 nM | 
2 | O=C1NC(=O)C(c2cn3c4c(cc(Br)cc24)CNCC3)=C1c1coc2ccccc12 | Toxic | Toxic | 11.5 nM | 
3 | O=C1NC(=O)C(c2cn3c4c(cccc24)CN(C(=O)c2cnccn2)CC3)=C1c1coc2ccccc12 | Toxic | Toxic | 0.2 nM | 
4 | O=C1NC(=O)C(c2cn3c4c(cccc24)CN(C(=O)Cc2ccncc2)CC3)=C1c1coc2ccccc12 | Toxic | Toxic | 0.59 nM | 
5 | O=C1NC(=O)C(c2cn3c4c(cc(F)cc24)CN(C(=O)N2CCCCC2)CC3)=C1c1coc2ccccc12 |  | Non-toxic | 1.9 nM | 
6 | O=C1NC(=O)C(c2cn3c4c(cc(F)cc24)CN(C(=O)N2CCC(N4CCCCC4)CC2)CC3)=C1c1coc2ccccc12 | Toxic | Toxic | 0.53 nM | 
7 | O=C1NC(=O)C(c2cn3c4c(cc(F)cc24)CN(C(=O)N2CCOCC2)CC3)=C1c1coc2ccccc12 | Toxic | Toxic | 0.013 nM | 
8 | O=C1NC(=O)C(c2cn(CCO)c3ccc(Br)cc23)=C1c1coc2ccccc12 |  |  | 21.4 nM | 
9 | O=C1NC(=O)C(c2cn(CCO)c3ccc(F)cc23)=C1c1coc2ccccc12 |  |  | 4.8 nM | 
10 | O=C1NC(=O)C(c2cn(CCCO)c3ccc(F)cc23)=C1c1coc2ccccc12 |  |  | 15 nM | 
11 | NCCn1cc(C2=C(c3coc4ccccc34)C(=O)NC2=O)c2cc(Br)ccc21 |  |  | 116 nM | 180 µg/mL (≈ 400 µM)
12 | NCCn1cc(C2=C(c3coc4ccccc34)C(=O)NC2=O)c2cc(F)ccc21 |  |  | 41.1 nM | 
13 | CNCCCn1cc(C2=C(c3coc4ccccc34)C(=O)NC2=O)c2cc(Br)ccc21 |  |  | 404 nM | 
14 | CNCCCn1cc(C2=C(c3coc4ccccc34)C(=O)NC2=O)c2cc(F)ccc21 |  |  | 202 nM | 
15 | COCCn1cc(C2=C(c3coc4ccccc34)C(=O)NC2=O)c2ccccc21 | Non-toxic | Non-toxic | 19.8 nM | 
16 | COCCn1cc(C2=C(c3coc4ccccc34)C(=O)NC2=O)c2cc(F)ccc21 |  |  | 39.7 nM | 

Row | SMILES | Activity [1] | Activity [2] | IC50 [3] | solubility kinetic [4]
17 | COCCn1cc(C2=C(c3coc4ccccc34)C(=O)NC2=O)c2cc(Br)ccc21 |  |  | 82.3 nM | 
18 | COCCn1cc(C2=C(c3coc4ccccc34)C(=O)NC2=O)c2cc(F)c(F)cc21 | Toxic | Toxic | 35.7 nM | 
19 | Cn1cc(C2=C(c3coc4ccccc34)C(=O)NC2=O)c2cc(Br)cnc21 | Non-toxic | Non-toxic | 5.3 nM | 
20 | COCCn1cc(C2=C(c3coc4ccccc34)C(=O)NC2=O)c2cc(Br)cnc21 | Non-toxic | Non-toxic | 25.2 nM | 
21 | Cn1cc(C2=C(c3coc4ccccc34)C(=O)NC2=O)c2cccnc21 |  |  | 17.6 nM | 
22 | COCCn1cc(C2=C(c3coc4ccccc34)C(=O)NC2=O)c2cccnc21 | Toxic | Toxic | 58.2 nM | 
23 | COc1cc2c(C3=C(c4coc5ccccc45)C(=O)NC3=O)cn(C)c2cn1 |  | Non-toxic | 65.9 nM | 
24 | COCCn1cc(C2=C(c3coc4ccccc34)C(=O)NC2=O)c2cc(OC)ncc21 |  |  | 127 nM | 
25 | Cn1cc(C2=C(c3cnc4ccccn34)C(=O)NC2=O)c2cc3c(cc21)OCO3 |  |  | 5.3 nM | 
26 | Cn1cc(C2=C(c3cnc4ccccn34)C(=O)NC2=O)c2cc(Br)ccc21 |  | Non-toxic | 0.87 nM | 35 µg/mL (≈ 83.1 µM)
27 | COCCc1cccc2c(C3=C(c4coc5ccccc45)C(=O)NC3=O)cn(C)c12 | Non-toxic | Non-toxic | 11.2 nM | 
28 | Cn1cc(C2=C(c3coc4ccccc34)C(=O)NC2=O)c2cccc(CCOC(C)(C)C)c21 |  |  | 148 nM | 
29 | COCCc1cccc2c(C3=C(c4coc5ccccc45)C(=O)NC3=O)cn(CCOC)c12 | Toxic | Toxic | 114 nM | 
30 | O=C1NC(=O)C(c2cn3c4c(cccc24)CNCC3)=C1c1coc2ccccc12 |  |  | 4.2 nM | 240 µg/mL (≈ 626 µM)
31 | Cn1cc(C2=C(c3coc4ccccc34)C(=O)NC2=O)c2cc(Br)ccc21 | Non-toxic | Non-toxic |  | 
